In patent US8642572B2, “Cytidine derivative-containing antitumor agent for continuous intravenous administration” (Taiho Pharmaceutical Co., Ltd., priority 2007, dated 2014):

Key:
[1] = test system: human lung tumor cells (A549 strain); test: Effect of ECyd contact schedule on growth inhibition of A549 cells (Crystal Violet staining, constant AUC); assay type: cell-based
Description: The effects of the ECyd contact schedule on growth inhibition of human lung tumor cells (A549 strain) were investigated.
(§1) The experiment of Example 4 was performed at a constant AUC (product of contact time and ECyd concentration). Specifically, in each tested regimen, AUC was maintained at such a level that the ECyd concentration was adjusted to provide IC80 (0.08 μM) as a result of contact between ECyd and the A549 cells for 100 hours. In each tested regimen, A549 cells were seeded on a plate and treated with ECyd. Subsequently, the cell culture liquid was exchanged. The profile of cell growth thereafter was obtained through staining with Crystal Violet.

[2] = test system: patients of solid cancers; test: Phase I-equivalent test in cancer patients, once every three weeks: 24-hour continuous vs rapid intravenous administration, neurotoxicity occurrence and therapeutic effect (RECIST); assay type: in vivo, human
Description: A group of cancer patients was repeatedly subjected to a course including a 24-hour continuous intravenous administration once every three weeks at a dose of 2.80 to 8.56 mg/m^2 as reduced to ECyd for each administration. Another group of cancer patients was repeatedly subjected to a course including a rapid intravenous administration once every three weeks at a dose of 2.81 to 9.46 mg/m^2 as reduced to ECyd. In both cases, the neurotoxicity occurrence and the therapeutic effect by ECyd were investigated.
(§2) The above test is equivalent to the phase I clinical trial, which is performed mainly for evaluating safety of the tested drug and determining the recommended dose (RD) of the drug, which ensures safety of the drug without adverse effects in the phase II clinical trial carried out with respect to the target cancer. The test is carried out for patients of solid cancers (e.g., gastrointestinal cancers, head and neck cancer, and breast cancer) which cannot be cured by a standard therapeutic method or to which no effective method is applicable. When the test is performed, if possible, the therapeutic effect on the target tumor is assessed. In the following examples, the therapeutic effect on the target tumor was assessed in accordance with the RECIST method (see Journal of the National Cancer Institute, 2000, Vol. 92, No. 3, p. 205 to 216). The effect of ECyd on shrinkage of the tumor was confirmed generally from a target lesion (a lesion having a size equal to or greater than the measurable size depending on the slice width obtained through CT or similar means) and the non-target lesions (all lesions other than the target lesion). […] PD (progressive disease) refers to a state in which the sum of the longer diameters of target lesions was increased by 20% or more as compared with the minimum sum of the longer diameters recorded after start of the test, or a state in which clear exacerbation in the non-target lesions or a new lesion was observed. SD (stable disease) refers to a state in which the degree of tumor shrinkage cannot be evaluated as PR and which cannot be evaluated as PD, and in which the tumor progress has stopped and no exacerbation was observed. MR (minor response) refers to a case in which a certain tumor shrinkage degree of about 15% was maintained (although it was less than 30%), or in which a therapeutic effect corresponding to PR is temporarily observed.

cancer patients = conditions: rapid intravenous injection, once every three weeks or once a week for three weeks and one week rest; cited from earlier work
[3] = test system: neural-crest-derived rat adrenal medulla chromaffin cells (PC12 strain); test: Effect of ECyd contact schedule on growth inhibition of PC12 cells (Crystal Violet staining, constant AUC); assay type: cell-based; conditions: for growth of PC12 cells after ECyd contact: constant AUC
Description: The effects of the ECyd contact schedule on growth inhibition of neural-crest-derived rat adrenal medulla chromaffin cells (PC12 strain) were investigated.
as §1, with “3” for “4”, “PC12” for “A549”

[4] = test system: patients of solid cancers; test: Test in cancer patients, 4-hour continuous vs rapid intravenous administration, neurotoxicity occurrence and therapeutic effect; assay type: in vivo, human
Description: as §2
A course including a 4-hour continuous intravenous administration once every three weeks out of a continuous four-week period at a dose of 1.30 mg/m^2 as reduced to ECyd for each administration was repeatedly performed. Also, a course including a rapid intravenous administration once every three weeks out of a continuous four-week period at a dose of 1.32 mg/m^2 as reduced to ECyd was repeatedly performed. In both cases, the neurotoxicity occurrence and the therapeutic effect by ECyd were investigated. In Example 2, selection of the patients and the method and ratings of evaluation were the same as employed in Example 1.

[5] = rapid intravenous administration once every three weeks, 6.31 mg/m^2

Question: For `C#C[C@@]1(O)[C@@H](CO)O[C@@H](n2ccc(N)nc2=O)[C@@H]1O` [ECyd, 1-(3-C-Ethynyl-β-D-ribopentofuranosyl)cytosine], which IC80 ([1]; Homo sapiens, A549 cells, contact for 100 hours) is on record?
Answer: 0.08 µM

Question: And the “growth of A549 cells after ECyd contact” value ([1]; contact times of 0.5 to 100 hours, constant AUC, day 6)?
Answer: virtually unrestored

Question: What about the peripheral neurotoxicity ([2]; 24-hour continuous intravenous administration once every three weeks, 2.80 mg/m^2 to 5.48 mg/m^2) of the same molecule?
Answer: no peripheral neurotoxicity was observed

Question: What about the therapeutic effect ([2]; rapid intravenous administration once every three weeks, 2.81 mg/m^2) of the same molecule?
Answer: no therapeutic effect was observed

Question: What about the “cases exhibiting peripheral neurotoxicity” value ([2]; rapid intravenous administration once every three weeks, 2.81 mg/m^2, two of the three cases) of the same molecule?
Answer: 66%

Question: What about the “cases exhibiting peripheral neurotoxicity” value [2, 5] of the same molecule?
Answer: two of the three cases

Question: And the “therapeutic efficacy (SD or higher)” value [2, 5]?
Answer: two of the three cases

Question: And the dose-limiting toxicity (cancer patients)?
Answer: peripheral neurotoxicity was observed as a dose-limiting toxicity

Question: What about the IC80 ([3]; Rattus norvegicus, PC-12, PC12 cells, contact for 100 hours) of the same molecule?
Answer: 0.08 µM

Question: What about the “growth of PC12 cells after ECyd contact” value ([3]; contact time of 0.5 hours, day 6) of the same molecule?
Answer: virtually unrestored

Question: What about the “growth of PC12 cells after ECyd contact” value ([3]; contact times of 25 and 100 hours) of the same molecule?
Answer: restored

Question: And the “therapeutic efficacy (SD or higher)” value ([4]; 4-hour continuous intravenous administration, 1.30 mg/m^2)?
Answer: 66%

Question: What about the “cases exhibiting peripheral neurotoxicity” value ([4]; 4-hour continuous intravenous administration, 1.30 mg/m^2, one of the three cases) of the same molecule?
Answer: 33%

Question: What about the “therapeutic efficacy (SD or higher)” value ([4]; rapid intravenous administration, 1.32 mg/m^2) of the same molecule?
Answer: no therapeutic efficacy (SD or higher) was observed

Question: What about the “cases exhibiting peripheral neurotoxicity” value ([4]; rapid intravenous administration, 1.32 mg/m^2, one of the three cases) of the same molecule?
Answer: 33%
